For one compound, PDC activity, ROS level and Apoptotic death results are on record in publication PMC12508156, “Non-canonical dihydrolipoyl transacetylase promotes chemotherapy resistance via mitochondrial tetrahydrofolate signaling” (Nature Communications, 2025).

In assay [1] the target is T1, pyruvate dehydrogenase complex (PDC) (Homo sapiens, UniProt P08559+P09622+P10515).
T1 construct: endogenous in cells; host or cells: A549cisR and KB-3-1cisR cells (lysates; Abcam PDH Enzyme Activity Microplate Assay Kit)
T1 sequence (P08559 30-390): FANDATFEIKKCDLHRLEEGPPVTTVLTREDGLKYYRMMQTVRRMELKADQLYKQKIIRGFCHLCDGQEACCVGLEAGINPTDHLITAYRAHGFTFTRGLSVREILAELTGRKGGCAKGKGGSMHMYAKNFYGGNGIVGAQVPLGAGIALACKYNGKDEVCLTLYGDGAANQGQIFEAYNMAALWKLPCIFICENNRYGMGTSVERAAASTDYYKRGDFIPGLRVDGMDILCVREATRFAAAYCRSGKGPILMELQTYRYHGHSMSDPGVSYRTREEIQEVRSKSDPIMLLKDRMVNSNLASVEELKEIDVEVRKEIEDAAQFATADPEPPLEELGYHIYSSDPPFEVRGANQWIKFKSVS
T1 sequence (P10515 87-647): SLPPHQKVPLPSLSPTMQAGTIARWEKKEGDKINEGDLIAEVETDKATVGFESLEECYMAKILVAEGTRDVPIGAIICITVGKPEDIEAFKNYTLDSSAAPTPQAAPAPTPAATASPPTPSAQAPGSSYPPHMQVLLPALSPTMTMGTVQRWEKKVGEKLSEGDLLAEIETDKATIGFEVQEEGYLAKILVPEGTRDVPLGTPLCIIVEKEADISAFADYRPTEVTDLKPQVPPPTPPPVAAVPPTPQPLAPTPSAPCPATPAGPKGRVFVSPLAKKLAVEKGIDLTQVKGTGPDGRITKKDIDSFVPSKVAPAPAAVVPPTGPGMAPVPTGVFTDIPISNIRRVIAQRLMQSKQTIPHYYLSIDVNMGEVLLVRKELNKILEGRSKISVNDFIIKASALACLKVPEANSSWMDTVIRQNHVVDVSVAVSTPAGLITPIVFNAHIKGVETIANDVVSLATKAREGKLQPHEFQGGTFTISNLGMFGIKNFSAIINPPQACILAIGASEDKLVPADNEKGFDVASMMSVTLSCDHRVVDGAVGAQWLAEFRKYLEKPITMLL
T1 sequence (P09622 36-509): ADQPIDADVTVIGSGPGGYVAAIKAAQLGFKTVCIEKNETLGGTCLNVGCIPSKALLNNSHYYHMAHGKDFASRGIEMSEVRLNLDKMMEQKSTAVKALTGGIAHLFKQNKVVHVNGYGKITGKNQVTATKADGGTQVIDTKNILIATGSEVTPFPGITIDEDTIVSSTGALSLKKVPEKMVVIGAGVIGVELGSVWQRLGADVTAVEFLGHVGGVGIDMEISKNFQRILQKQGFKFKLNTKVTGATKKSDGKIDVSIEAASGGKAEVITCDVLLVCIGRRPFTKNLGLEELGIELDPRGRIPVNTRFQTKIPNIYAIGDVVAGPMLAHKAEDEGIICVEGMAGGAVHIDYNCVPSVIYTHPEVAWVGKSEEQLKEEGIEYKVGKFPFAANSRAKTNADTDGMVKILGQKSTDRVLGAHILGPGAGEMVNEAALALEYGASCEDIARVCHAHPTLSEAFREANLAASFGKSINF
In words: PDC activity (PDH enzyme activity microplate assay). Particulars: cisplatin 24 h, NADH production from PDH reaction, normalised, n=1-3: biological replicates, listed as cis. The class given is cell-based. Here is the method:
Cellular metabolic states were examined through various assays. […] Intracellular H2O2, NADPH, acetyl-CoA, and GSH/GSSG ratios were quantified using commercial assay kits as listed in the Reagents. Intracellular ATP levels were determined utilizing the ATP bioluminescent somatic cell assay and normalized to the total protein concentrations. The de novo synthesized RNA and proteins were assessed in cancer cells using commercial assays following the manufacturer’s protocols. In brief, O-propargyl-puromycin or uridine analog, 5-EU, was applied to stop translation or modify RNA. Polypeptides or modified RNA were measured using fluorescent azide with Ex/Em at 494/521 nm. PDC activity was determined by measuring the reduction of NAD+ to NADH during the conversion of pyruvate into acetyl-CoA. To estimate the activity of the pyruvate dehydrogenase complex (PDC), PDH (E1 subunit) activity was measured using the Pyruvate Dehydrogenase Enzyme Activity Microplate Assay Kit (Abcam) according to the manufacturer’s instructions. Briefly, A549^cisR and KB-3-1^cisR cells with or without DLAT knockdown were harvested, washed with PBS, and lysed using the supplied detergent solution. After quantifying protein concentration, lysates were diluted to 10 mg/ml in 1 ⅹ buffer, and 200 μl of assay solution was added to each well, and absorbance at 450 nm was measured kinetically every 30 s for 30 min at room temperature using a microplate reader.

The subject of a further assay is cellular ROS. Nature of the assay: Cellular ROS level (CM-H2DCFDA staining). The class given is cell-based, human. Here is the method:
Cellular metabolic states were examined through various assays. To gauge the levels of total intracellular or mitochondrial reactive oxygen species (ROS), cells were stained with CM-H2DCFDA or mitoSOX, respectively. Intracellular H2O2, NADPH, acetyl-CoA, and GSH/GSSG ratios were quantified using commercial assay kits as listed in the Reagents. Intracellular ATP levels were determined utilizing the ATP bioluminescent somatic cell assay and normalized to the total protein concentrations. The de novo synthesized RNA and proteins were assessed in cancer cells using commercial assays following the manufacturer’s protocols. In brief, O-propargyl-puromycin or uridine analog, 5-EU, was applied to stop translation or modify RNA. Polypeptides or modified RNA were measured using fluorescent azide with Ex/Em at 494/521 nm. PDC activity was determined by measuring the reduction of NAD+ to NADH during the conversion of pyruvate into acetyl-CoA.

For the next assay, the system named is A549cisR cells. Nature of the assay: Apoptotic cell death (annexin V/PI staining). The format is cell-based, human. Particulars: cisplatin 2 μg/ml, 48 h, n=1-4: biological replicates, listed as cis.

Several values for one entry are separate records, joined by “and”; a condition that tells them apart may be missing. Equal entries are not always repeated.

For `N.N.[Cl][Pt][Cl]` [cisplatin], the PDC activity is 0.9844 and 1.125 and 1.078 in assay [1] (A549cisR pLKO.1); 0.375 and 0.4219 in assay [1] (A549cisR shDLAT); 1.12 and 1.073 in assay [1] (KB-3-1cisR pLKO.1); 0.06728 and 0.05145 and 0.04749 in assay [1] (KB-3-1cisR shDLAT). Besides, the ROS level in the assay on cellular ROS (A549cisR cells, pLKO.1, n=1) turned out to be 0.9837; with cellular ROS (A549cisR cells, pLKO.1, n=2), 1.0031; in the assay with cellular ROS (A549cisR cells, pLKO.1, n=3) it was 1.0132; in the assay with cellular ROS (A549cisR, CTL, sheet Figure 5G, replicate n=1), 1.052; with cellular ROS (A549cisR, CTL, sheet Figure 5G, replicate n=2) it was 0.9938; in the assay with cellular ROS (A549cisR, CTL, sheet Figure 5G, replicate n=3), 0.9539. Also, the ROS level is on record as 1.037 in the assay with cellular ROS (KB-3-1cisR cells, pLKO.1, n=1); 0.9651 in the assay on cellular ROS (KB-3-1cisR cells, pLKO.1, n=2); 0.9984 in the assay on cellular ROS (KB-3-1cisR cells, pLKO.1, n=3); 2.065 with cellular ROS (KB-3-1cisR cells, shDLAT, n=1); 2.047 with cellular ROS (KB-3-1cisR cells, shDLAT, n=2); 0.9879 in the assay with cellular ROS (KB-3-1cisR, CTL, sheet Figure 5G, replicate n=1). Besides, the ROS level in the assay on cellular ROS (KB-3-1cisR, CTL, sheet Figure 5G, replicate n=2) came to 1.001; in the assay with cellular ROS (KB-3-1cisR, CTL, sheet Figure 5G, replicate n=3), 1.011; in the assay on cellular ROS (KB-3-1cisR, shDLAT+Flag-MTHFD2 (K44Q), sheet Figure 5G, replicate n=1), 1.351; in the assay with cellular ROS (KB-3-1cisR, shDLAT+Flag-MTHFD2 (K44Q), sheet Figure 5G, replicate n=2), 1.32. In addition, the Apoptotic death in the assay on A549cisR cells (A549cisR pLKO.1+pLHCX) is 7.05 and 8.53 and 8.99 and 9.51; in the assay on A549cisR cells (A549cisR shDLAT+DLAT(WT) rescue), 7.31 and 8.35 and 8.93 and 10.11.
